Measurements as given in US5495032A, “Process for producing 7-(substituted)-8-(substituted-9-[(substituted glycyl)amido]-6-demethyl-6-deoxytetracyclines” (priority 1994, dated 1996).
Where a name gives a salt, the structure may show the parent alone. Read-outs that look alike come from different tables or passages of the source.

Assays:
Assay type in all cases: cell-based
S. aureus ROSE (MP) = assay: MIC, agar dilution method; conditions: 18 hours at 35° C.
S. aureus UBMS 88-4 = assay: MIC, agar dilution method
[1] = test system: X. maltophilia NEMC 87210; assay: MIC, agar dilution method; conditions: 18 hours at 35° C.
E. coli #311 (MP) = assay: MIC, agar dilution method; conditions: 18 hours at 35° C.
[2] = test system: S. aureus UBMS 90-2 Tet M; assay: microbe, parasite or virus in culture; conditions: 18 hours at 35° C.
E. coli J3272 Tet C = assay: microbe, parasite or virus in culture
S. aureus SMITH (MP) = assay: MIC, agar dilution method; conditions: 18 hours at 35° C.
[3] = test system: E. coli MC 4100 Tet sens.; assay: MIC, agar dilution method; conditions: 18 hours at 35° C.
E. coli UBMS 90-4 Tet M = assay: microbe, parasite or virus in culture; conditions: 18 hours at 35° C.
E. coli ATCC 25922 = assay: MIC, agar dilution method
[4] = test system: Ps. acruginosa ATCC 27853; assay: MIC, agar dilution method
[5] = test system: E. coli MC 4100 TNIOC Tet B; assay: microbe, parasite or virus in culture; conditions: 18 hours at 35° C.
E. coli J3272 Tet D = assay: microbe, parasite or virus in culture
[6] = test system: E. coli UBMS 89-2 Tet sens; assay: MIC, agar dilution method; conditions: 18 hours at 35° C.
E. coli UBMS 90-5 sens = assay: MIC, agar dilution method; conditions: 18 hours at 35° C.
[7] = test system: S. aureus UBMS 90-1 Tet M; assay: microbe, parasite or virus in culture; conditions: 18 hours at 35° C.
S. aureus ATCC 29213 = assay: MIC, agar dilution method; conditions: 18 hours at 35° C.
[8] = test system: S. hemolyticus AVHAH 88-3; assay: MIC, agar dilution method; conditions: 18 hours at 35° C.
E. coli PRP1 Tet A = assay: microbe, parasite or virus in culture; conditions: 18 hours at 35° C.
S. aureus IVES 1 983 = assay: MIC, agar dilution method; conditions: S. aureus IVES 1 983, 18 hours at 35° C.
E. coli J2175 = assay: MIC, agar dilution method; conditions: 18 hours at 35° C.
S. aureus UBMS 90-3 = assay: MIC, agar dilution method
S. mariescens FPOR 8733 = assay: MIC, agar dilution method; conditions: 18 hours at 35° C.
[9] = test system: S. aureus UBMS 88-7 Tet K; assay: microbe, parasite or virus in culture; conditions: 18 hours at 35° C.
E. coli BAJ9003 IMP MUT = assay: microbe, parasite or virus in culture; conditions: 18 hours at 35° C.
[10] = test system: S. aureus UBMS 88-5 Tet M; assay: microbe, parasite or virus in culture
Enterococcus 12201 = assay: MIC, agar dilution method; conditions: 18 hours at 35° C.
S. aureus NEMC 8769 = assay: MIC, agar dilution method
E. coli UBMS 89-1 Tet M = assay: microbe, parasite or virus in culture; conditions: 18 hours at 35° C.
E. coli UBMS 88-1 Tet B = assay: microbe, parasite or virus in culture; conditions: 18 hours at 35° C.
S. aureus IVES 2943 = assay: MIC, agar dilution method; conditions: S. aureus IVES 2943, 18 hours at 35° C.
E. faecalis ATCC 29212 = assay: MIC, agar dilution method; conditions: 18 hours at 35° C.
[11] = Staphylococcus aureus, read-out: MIC
[12] = Escherichia coli, read-out: MIC

Molecule CN(C)C1C(O)=C(C(N)=O)C(=O)C2(O)C(O)=C3C(=O)c4c(cc(Cl)c(NC(=O)CNCC5CC5)c4O)CC3CC12.Cl.Cl (stereo not drawn) [G, [4S-(4α,12aα)]-8-Chloro-9-[[(cyclopropylmethylamino)acetyl]amino]-4-(dimethylamino)-1,4,4a,5,5a,6,11,12a-octahydro-3,10,12,12a-tetrahydroxy-1,11-dioxo-2-naphthacenecarboxamide dihydrochloride] has an MIC (S. aureus ROSE (MP)) of 32 µg/mL, an MIC (S. aureus UBMS 88-4; 18 hours at 35° C.) of 0.5 µg/mL and an MIC [1] of 4 µg/mL. For the same molecule, the MIC (E. coli #311 (MP)) was 1 µg/mL, the MIC [2] was 0.5 µg/mL and the MIC (E. coli J3272 Tet C; E. coli J3272 Tet C, 18 hours at 35° C.) was 1 µg/mL. The MIC (S. aureus SMITH (MP)) was 0.5 µg/mL, the MIC [3] was 0.25 µg/mL and the MIC (E. coli UBMS 90-4 Tet M) was 1 µg/mL. It also gave an MIC (E. coli ATCC 25922; 18 hours at 35° C.) of 1 µg/mL, an MIC ([4]; Ps. acruginosa ATCC 27853, 18 hours at 35° C.) of 32 µg/mL and an MIC [5] of 1 µg/mL. The MIC (E. coli J3272 Tet D; E. coli J3272 Tet D, 18 hours at 35° C.) was 1 µg/mL, the MIC [6] was 1 µg/mL and the MIC (E. coli UBMS 90-5 sens) was 1 µg/mL. It also gave an MIC [7] of 2 µg/mL, an MIC (S. aureus ATCC 29213) of 0.25 µg/mL and an MIC [8] of 8 µg/mL. It also gave an MIC (E. coli PRP1 Tet A) of 4 µg/mL, an MIC (S. aureus IVES 1 983) of 16 µg/mL and an MIC (E. coli J2175) of 1 µg/mL. It also gave an MIC (S. aureus UBMS 90-3; S. aureus UBMS 90-3, 18 hours at 35° C.) of 0.12 µg/mL, an MIC (S. mariescens FPOR 8733) of 8 µg/mL and an MIC [9] of 8 µg/mL. It also gave an MIC (E. coli BAJ9003 IMP MUT) of 0.12 µg/mL, an MIC ([10]; S. aureus UBMS 88-5 Tet M, 18 hours at 35° C.) of 0.5 µg/mL and an MIC (Enterococcus 12201) of 0.25 µg/mL. For the same molecule, the MIC (S. aureus NEMC 8769; S. aureus NEMC 8769, 18 hours at 35° C.) was 0.5 µg/mL, the MIC (E. coli UBMS 89-1 Tet M) was 0.5 µg/mL and the MIC (E. coli UBMS 88-1 Tet B) was 1 µg/mL. The MIC (S. aureus IVES 2943) was 16 µg/mL and the MIC (E. faecalis ATCC 29212) was 0.25 µg/mL.
CNCC(=O)Nc1c(Cl)cc2c(c1O)C(=O)C1=C(O)[C@]3(O)C(=O)C(C(N)=O)=C(O)[C@@H](N(C)C)C3CC1C2 (stereo partly drawn) [I, [4S-(4α,12aα)]-8-Chloro-4-(dimethylamino)-1,4,4a,5,5a,6,11,12a-octahydro-3, 10,12,12a-tetrahydroxy-1,11-dioxo-9-[[(methylamino)acetyl]amino]-2-naphthacenecarboxamide dihydrochloride] was tested, and the MIC (S. aureus ROSE (MP); [11]) was greater than 32 µg/mL, the MIC (S. aureus UBMS 88-4; Staphylococcus aureus, UBMS884, 18 hours at 35° C., read-out: MIC) was 0.5 µg/mL and the MIC ([1]; Stenotrophomonas maltophilia, NEMC87210, 18 h) was 16 µg/mL. It also gave an MIC (E. coli #311 (MP); [12]) of 2 µg/mL, an MIC ([2]; Staphylococcus aureus, UBMS902TETM, 18 h) of 0.5 µg/mL and an MIC (E. coli J3272 Tet C; Escherichia coli, J3272TETC, 18 h) of 16 µg/mL. The MIC (S. aureus SMITH (MP); [11]) was 0.5 µg/mL, the MIC [3, 12] was 0.25 µg/mL and the MIC (E. coli UBMS 90-4 Tet M; Escherichia coli, UBMS904TETM, 18 h) was 1 µg/mL. It also gave an MIC (E. coli ATCC 25922; Escherichia coli, ATCC25922, 18 hours at 35° C., read-out: MIC) of 1 µg/mL, an MIC ([4]; 18 h) of 16 µg/mL and an MIC ([5]; Escherichia coli, 18 h) of 1 µg/mL. The MIC (E. coli J3272 Tet D; Escherichia coli, J3272TETD, 18 h) was 1 µg/mL, the MIC ([6]; Escherichia coli, UBMS892TETSENS, 18 h, read-out: MIC) was 2 µg/mL and the MIC (E. coli UBMS 90-5 sens; Escherichia coli, UBMS905SENS, read-out: MIC) was 1 µg/mL. The MIC ([7]; Staphylococcus aureus, UBMS901TETM, 18 h) was 0.5 µg/mL, the MIC (S. aureus ATCC 29213; Staphylococcus aureus, ATCC29213, 18 h) was 0.5 µg/mL and the MIC ([8]; Streptococcus pyogenes, AVHAH883, 18 h) was 2 µg/mL. It also gave an MIC (E. coli PRP1 Tet A; Escherichia coli, PRP1TETA, 18 h) of 16 µg/mL, an MIC (S. aureus IVES 1 983; Staphylococcus aureus, IVES1983, read-out: MIC) greater than 32 µg/mL and an MIC (E. coli J2175; [12]) of 1 µg/mL. It also gave an MIC (S. aureus UBMS 90-3; Staphylococcus aureus, UBMS903, 18 h) of 0.5 µg/mL, an MIC (S. mariescens FPOR 8733; 18 h) of 16 µg/mL and an MIC ([9]; Staphylococcus aureus, UBMS887TETK, 18 h) greater than 32 µg/mL. The MIC (E. coli BAJ9003 IMP MUT; Escherichia coli, BAJ9003IMPMUT, 18 h) was 0.25 µg/mL, the MIC ([10]; Staphylococcus aureus, UBMS885TETM, 18 h) was 0.5 µg/mL and the MIC (Enterococcus 12201; Enterococcus, 12201, 18 h) was 0.5 µg/mL. The MIC (S. aureus NEMC 8769; Staphylococcus aureus, NEMC8769, 18 h) was 0.5 µg/mL, the MIC (E. coli UBMS 89-1 Tet M; Escherichia coli, UBMS891TETM, 18 h) was 2 µg/mL and the MIC (E. coli UBMS 88-1 Tet B; Escherichia coli, UBMS881TETB, 18 h) was 1 µg/mL. The MIC (S. aureus IVES 2943; Staphylococcus aureus, IVES2943, read-out: MIC) was greater than 32 µg/mL and the MIC (E. faecalis ATCC 29212; Enterococcus faecalis, ATCC29212, 18 h) was 0.25 µg/mL.
